According to US20030206968A1, “Fungicidal mixtures” (priority 1999, published 2003):
Where two headings read alike, the source gives them in different places.

Experiments:
Assay type in all cases: in vivo
Puccinia recondita [1] = assay: Greenhouse, Puccinia recondita on wheat, 1 day residual; conditions: for pest or weed control at 0.06 ppm / pest or weed control at 0.25 ppm / pest or weed control at 1 ppm / pest or weed control at 4 ppm: Puccinia recondita, read-out: Observed Efficacy
Description: (§1) The fungicides are applied in single treatments, or in a combination comprising an azolopyrimidine of formula I and a compound selected from the classes (A), (B) and (C) as defined above. The compounds are applied in form of an aqueous spray mix obtained from a concentrated formulation or the technical material.
(§2) 1. Seed is planted in 6 cm diameter plastic pots and maintained in the greenhouse.
(§3) 2. When the primary leaf is fully expanded in the case of cereals or several leaves are present in the case of dicots, formulated test compounds are sprayed with a three nozzle overhead fungicide sprayer to near run-off. Alternatively, a single nozzle overhead track sprayer is used for application of the compounds to cereals at a rate of 200 l/ha. Plants are then allowed to air-dry.
(§4) 3. Inoculation precedes treatment in the case of curative evaluations and follows treatment in case of residual evaluations. For inoculation of powdery mildew disease, plants are set up on greenhouse benches with bottom watering mats and inoculated by dusting them with conidia from infected plants. Between inoculation and treatment for curative evaluations and between treatment and inoculation for residual evaluations, plants are maintained in the greenhouse with bottom watering.
(§5) For inoculation of non-powdery mildew diseases, an aqueous spore suspension of the pathogen is applied to the plant and the plants are kept 1-2 days in a moist infection chamber before being returned to the greenhouse where they are maintained by bottom watering.
(§6) 4. Disease on the foliage as percent leaf area with disease symptoms/signs is evaluated about 7 days after inoculation. In the case of wheat, the tips and bases of the leaves are excluded from the evaluation. [formula]
(§7) 1. Technical compounds are formulated in a solvent/surfactant system consisting of 5% acetone and 0.05% Tween 20 in deionized water. Compounds are dissolved in acetone prior to addition of the water; the Tween 20 can be added through either the acetone or the water. Dilutions are made using the solvent/surfactant system. Formulated compounds are prepared using deionized water.
(§8) 2. Two kinds of controls are included: Plants treated with the solvent/surfactant solution and inoculated (Solvent Blank). Untreated plants which are inoculated (Inoculated Control).
(§9) Assessments of the diseases took place at the indicated day after the application of the compounds. Per cent infected leaf area infected was evaluated. The efficacy of the compounds/compounds mixtures to control the diseases was calculated by using the formula given above under item 4: […]
(§10) Synergy was calculated using the % disease control values of specific treatments for the two COLBY formula given hereinabove
Fungicidal efficacy of the mixture of Azolopyrimidine C+metconazole (1 day residual) against Puccinia recondita on wheat The tank mix was obtained from a SC formulation containing 100 g Azolopyrimidine C per liter and an EC containing 100 g metconazole per liter. […]
Fungicidal efficacy of the mixture of Azolopyrimidine C+fluazinam (1 day residual) against Puccinia recondita on wheat The tank mix was obtained from technical material of Azolopyrimidine C and a SC formulation containing 500 g fluazinam per liter. […]

Blumeria graminis [2] = assay: Greenhouse, Blumeria graminis on wheat, 1 day residual
Description: as §1, §2, §3, §4, §6, §7, §8, §9, §10
Fungicidal efficacy of the mixture of Azolopyrimidine C+quinoxyfen (1 day residual)) against Blumeria graminis on wheat The tank mix was obtained from technical material of Azolopyrimidine C and quinoxyfen.
Fungicidal efficacy of the mixture of Azolopyrimidine C+metalaxyl (1 day residual) against Blumeria graminis on wheat The tank mix was obtained from technical material of Azolopyrimidine C and metalaxyl.
Fungicidal efficacy of the mixture of Azolopyrimidine C+famoxadone (1 day residual) against Blumeria graminis on wheat The tank mix was obtained from technical material of Azolopyrimidine C and famoxadone.

Blumeria graminis [3] = assay: Greenhouse, Blumeria graminis on barley, 2 days curative
Experimental: as §1, with “The trials are carried out under greenhouse (Examples 1 to 32) or field conditions (Examples 33 to 40) in residual or curative applications. The fungicides” for “The fungicides”
as §2, §3, §4, §6, §7, §8, §9, §10
Fungicidal efficacy of the mixture of (S)-Azolopyrimidine C in admixture with Fenhexamid (2 days curative) against Blumeria graminis on barley. The tank mixes were obtained from technical material of (S)-Azolopyrimidine C and Fenhexamid.
Fungicidal efficacy of the mixture of (S)-Azolopyrimidine C in admixture with Azoxystrobin or Trifloxystrobin (2 days curative) against Blumeria graminis on barley. The tank mixes were obtained from technical material of (S)-Azolopyrimidine C and Azoxystrobin or Trifloxystrobin.

Botrytis cinerea = assay: Apple fruit Botrytis test, Botrytis cinerea on apple fruits, 3 day residual
Experimental: 1. Apples (Malus X domestica Borkh.) variety Golden Delicious are disinfected by washing them briefly in 70% ethanol. After drying the apples are marked with four short equal-distant lines indicating the positions to be wounded.
2. Corresponding with the marks, four holes are poked around the apple equator with a pipette tip. 10 μl of the treatment solution are pipetted into each hole.
3. Three hours after application, 10 μl of a conidial suspension of Botrytis cinerea are pipetted into each. For incubation, the treated/inoculated apples are set up for five days.
4. Disease occurs as rotten apple tissue surrounding the inoculated wounds. The diameter of the rotten zone around each wound is measured.
1. Technical compounds are formulated in a solvent system consisting of 5% acetone and 0.05% Tween 20 in deionized water. Compounds are dissolved in acetone prior to dilution with water. Formulated compounds are prepared using deionized water.
2. Three kinds of controls are included:
Assessments of the diseases took place at the indicated day after the application of the compounds. Per cent infected leaf area infected was evaluated. The efficacy of the compounds/compounds mixtures to control the diseases was calculated by using the formula: [formula]
as §10
Fungicidal efficacy of the mixture of Azolopyrimidine A+vinclozolin (3 day residual) against Botrytis cinerea on apple fruits The tank mix was obtained from technical material of Azolopyrimidine A and a WG formulation containing 500 g vinclozolin per kg.
Fungicidal efficacy of the mixture of Azolopyrimidine A+cyprodinil (3 day residual) against Botrytis cinerea on apple fruits The tank mix was obtained from technical material of Azolopyrimidine A and a WG formulation containing 750 g cyprodinil per kg.
Fungicidal efficacy of the mixture of Azolopyrimidine A+benomyl (3 day residual) against Botrytis cinerea on apple fruits The tank mix was obtained from technical material of Azolopyrimidine A and a WP formulation containing 500 g benomyl per kg.

Blumeria graminis [4] = assay: Greenhouse, Blumeria graminis on wheat, 2 days curative; conditions: Example 27
Experimental: as §1, with “The trials are carried out under greenhouse (Examples 1 to 32) or field conditions (Examples 33 to 40) in residual or curative applications. The fungicides” for “The fungicides”
as §2, §3, §4, §6, §7, §8, §9, §10
Fungicidal efficacy of the mixture of (S)-Azolopyrimidine C in admixture with Azoxystrobin or Trifloxystrobin (2 days curative) against Blumeria graminis on wheat. The tank mixes were obtained from technical material of (S)-Azolopyrimidine C and Azoxystrobin or Trifloxystrobin.

Puccinia recondita [5] = assay: Greenhouse, Puccinia recondita on wheat, 2 days curative; conditions: Example 28
Experimental: as §1, with “The trials are carried out under greenhouse (Examples 1 to 32) or field conditions (Examples 33 to 40) in residual or curative applications. The fungicides” for “The fungicides”
as §2, §3, §4, §5, §6, §7, §8, §9, §10
Fungicidal efficacy of the mixture of (S)-Azolopyrimidine C in admixture with Azoxystrobin or Trifloxystrobin (2 days curative) against Puccinia recondita on wheat. The tank mixes were obtained from technical material of (S)-Azolopyrimidine C and Azoxystrobin or Trifloxystrobin.

Blumeria graminis [6] = assay: Greenhouse, Blumeria graminis on wheat, 4 days residual; conditions: Example 30
Experimental: as §1, with “The trials are carried out under greenhouse (Examples 1 to 32) or field conditions (Examples 33 to 40) in residual or curative applications. The fungicides” for “The fungicides”
as §2, §3, §4, §6, §7, §8, §9, §10
Fungicidal efficacy of the mixture of (S)-Azolopyrimidine C in admixture with Azoxystrobin or Trifloxystrobin (4 days residual) against Blumeria graminis on wheat. The tank mixes were obtained from technical material of (S)-Azolopyrimidine C and Azoxystrobin or Trifloxystrobin.

Puccinia recondita [7] = assay: Greenhouse, Puccinia recondita on wheat, 4 days residual; conditions: Example 31
Experimental: as §1, with “The trials are carried out under greenhouse (Examples 1 to 32) or field conditions (Examples 33 to 40) in residual or curative applications. The fungicides” for “The fungicides”
as §2, §3, §4, §5, §6, §7, §8, §9, §10
Fungicidal efficacy of the mixture of (S)-Azolopyrimidine C in admixture with Azoxystrobin or Trifloxystrobin (4 days residual) against Puccinia recondita on wheat. The tank mixes were obtained from technical material of (S)-Azolopyrimidine C and Azoxystrobin or Trifloxystrobin.

C[C@@]1(c2ccc(Oc3ccccc3)cc2)OC(=O)N(Nc2ccccc2)C1=O (racemic) [famoxadone]
pest or weed control at 0.06 ppm (Puccinia recondita [1]; Example 19, dose rate 0.06 ppm): 0% | pest or weed control at 0.25 ppm (Puccinia recondita [1]; Example 19, dose rate 0.25 ppm): 0% | pest or weed control at 1 ppm (Puccinia recondita [1]; Example 19, dose rate 1 ppm): 31% | pest or weed control at 4 ppm (Puccinia recondita [1]; Example 19, dose rate 4 ppm): 61% | Observed Efficacy (Blumeria graminis [2]; Example 18, dose rate 0.06 ppm): 0% | Observed Efficacy (Blumeria graminis [2]; Example 18, dose rate 0.25 ppm): 0% | Observed Efficacy (Blumeria graminis [2]; Example 18, dose rate 1 ppm): 0% | Observed Efficacy (Blumeria graminis [2]; Example 18, dose rate 4 ppm): 0%

CC1(C(=O)Nc2ccc(O)c(Cl)c2Cl)CCCCC1 [Fenhexamid]
Observed Efficacy (Blumeria graminis [3]; Example 26, dose rate 0.74 ppm): 0% | Observed Efficacy (Blumeria graminis [3]; Example 26, dose rate 2.2 ppm): 0% | Observed Efficacy (Blumeria graminis [3]; Example 26, dose rate 6.7 ppm): 0% | Observed Efficacy (Blumeria graminis [3]; Example 26, dose rate 20 ppm): 1% | Observed Efficacy (Blumeria graminis [3]; Example 26, dose rate 60 ppm): 7% | Observed Efficacy (Blumeria graminis [3]; Example 26, dose rate 180 ppm): 39%

CCCCNC(=O)n1c(NC(=O)OC)nc2ccccc21 [benomyl]
Observed Efficacy (Botrytis cinerea; Example 6, dose rate 1 ppm): 0% | Observed Efficacy (Botrytis cinerea; Example 6, dose rate 10 ppm): 13%

CC1=C(C(=O)Nc2ccccc2)SCCO1 [carboxin]
pest or weed control at 0.06 ppm (Puccinia recondita [1]): 0% | pest or weed control at 0.25 ppm (Puccinia recondita [1]): 0% | pest or weed control at 1 ppm (Puccinia recondita [1]): 0% | pest or weed control at 4 ppm (Puccinia recondita [1]): 4%

[Cl-].[Cu+2].[Cu+2].[OH-].[OH-].[OH-] [copper oxychloride]
Observed Efficacy (Puccinia recondita [1]; Example 21, dose rate 0.06 ppm): 0%

CCCCCCCCCCCCNC(=N)N [dodine]
pest or weed control at 0.06 ppm (Puccinia recondita [1]): 0%

O=[N+]([O-])c1cc(C(F)(F)F)c(Cl)c([N+](=O)[O-])c1Nc1ncc(C(F)(F)F)cc1Cl [fluazinam]
pest or weed control at 0.06 ppm (Puccinia recondita [1]; Example 14, dose rate 0.06 ppm): 0% | pest or weed control at 1 ppm (Puccinia recondita [1]; Example 14, dose rate 1 ppm): 4% | pest or weed control at 4 ppm (Puccinia recondita [1]; Example 14, dose rate 4 ppm): 17%

COCC(=O)N(c1c(C)cccc1C)C(C)C(=O)OC (centres unmarked) [metalaxyl]
Observed Efficacy (Blumeria graminis [2]; Example 17, dose rate 0.06 ppm): 0% | Observed Efficacy (Blumeria graminis [2]; Example 17, dose rate 0.25 ppm): 0% | Observed Efficacy (Blumeria graminis [2]; Example 17, dose rate 1 ppm): 0% | Observed Efficacy (Blumeria graminis [2]; Example 17, dose rate 4 ppm): 0%

Fc1ccc(Oc2ccnc3cc(Cl)cc(Cl)c23)cc1 [quinoxyfen]
pest or weed control at 0.06 ppm (Puccinia recondita [1]; Example 15, dose rate 0.06 ppm): 0% | pest or weed control at 0.25 ppm (Puccinia recondita [1]; Example 15, dose rate 0.25 ppm): 0% | pest or weed control at 1 ppm (Puccinia recondita [1]; Example 15, dose rate 1 ppm): 0% | pest or weed control at 4 ppm (Puccinia recondita [1]; Example 15, dose rate 4 ppm): 0% | Observed Efficacy (Blumeria graminis [2]; Example 16, dose rate 0.06 ppm): 8% | Observed Efficacy (Blumeria graminis [2]; Example 16, dose rate 0.25 ppm): 18% | Observed Efficacy (Blumeria graminis [2]; Example 16, dose rate 1 ppm): 73% | Observed Efficacy (Blumeria graminis [2]; Example 16, dose rate 4 ppm): 99%

S1SSSSSSS1 [sulfur]
pest or weed control at 1 ppm (Puccinia recondita [1]; Example 22, dose rate 1 ppm): 0%

C=CC1(C)OC(=O)N(c2cc(Cl)cc(Cl)c2)C1=O (centres unmarked) [vinclozolin]
Observed Efficacy (Botrytis cinerea; Example 4, dose rate 10 ppm): 8% | Observed Efficacy (Botrytis cinerea; Example 7, dose rate 1 ppm): 0% | Observed Efficacy (Botrytis cinerea; Example 7, dose rate 10 ppm): 17%

Trifloxystrobin
Observed Efficacy (Blumeria graminis [3]; Example 29, dose rate 1.6 ppm): 22% | Observed Efficacy (Blumeria graminis [3]; Example 29, dose rate 3.1 ppm): 36% | Observed Efficacy (Blumeria graminis [3]; Example 29, dose rate 6.3 ppm): 59% | Observed Efficacy (Blumeria graminis [3]; Example 29, dose rate 12.5 ppm): 74% | Observed Efficacy (Blumeria graminis [3]; Example 29, dose rate 25 ppm): 89% | Observed Efficacy (Blumeria graminis [3]; Example 29, dose rate 50 ppm): 96% | Observed Efficacy (Blumeria graminis [4]; dose rate 1.6 ppm): 34% | Observed Efficacy (Blumeria graminis [4]; dose rate 3.1 ppm): 55% | Observed Efficacy (Blumeria graminis [4]; dose rate 6.3 ppm): 78% | Observed Efficacy (Blumeria graminis [4]; dose rate 12.5 ppm): 89% | Observed Efficacy (Blumeria graminis [4]; dose rate 25 ppm): 98% | Observed Efficacy (Blumeria graminis [4]; dose rate 50 ppm): 99% | Observed Efficacy (Puccinia recondita [5]; dose rate 1.6 ppm): 0% | Observed Efficacy (Puccinia recondita [5]; dose rate 3.1 ppm): 0% | Observed Efficacy (Puccinia recondita [5]; dose rate 6.3 ppm): 0% | Observed Efficacy (Puccinia recondita [5]; dose rate 12.5 ppm): 0% | Observed Efficacy (Puccinia recondita [5]; dose rate 25 ppm): 0% | Observed Efficacy (Blumeria graminis [6]; dose rate 3.1 ppm): 0% | Observed Efficacy (Blumeria graminis [6]; dose rate 6.3 ppm): 0% | Observed Efficacy (Blumeria graminis [6]; dose rate 12.5 ppm): 0% | Observed Efficacy (Blumeria graminis [6]; dose rate 25 ppm): 0% | Observed Efficacy (Blumeria graminis [6]; dose rate 50 ppm): 14% | Observed Efficacy (Puccinia recondita [7]; dose rate 3.1 ppm): 0% | Observed Efficacy (Puccinia recondita [7]; dose rate 6.3 ppm): 0% | Observed Efficacy (Puccinia recondita [7]; dose rate 12.5 ppm): 0% | Observed Efficacy (Puccinia recondita [7]; dose rate 25 ppm): 0% | Observed Efficacy (Puccinia recondita [7]; dose rate 50 ppm): 0%
